Literature values, collected in patent publication US8790688B2, “Wound care device for local treatment of pain in a wound” (Coloplast A/S, priority 2001, dated 2014).

Settings: reported lowest range for systemic effect

Row | plasma concentration for systemic effect in the lowest range | Structure (SMILES)
1 | 270000 ng/mL | CC(=O)Oc1ccccc1C(=O)O [Acetylsalicylic acid]
2 | 10000 ng/mL | CC(C)Cc1ccc(C(C)C(=O)O)cc1 (stereo not shown) [Ibuprofen]
3 | 3000 ng/mL | CC(C(=O)O)c1cccc(C(=O)c2ccccc2)c1 (stereo not shown) [Ketoprofen]
4 | 1000 ng/mL | CN1C(C(=O)Nc2ccccn2)=C(O)c2ccccc2S1(=O)=O [Piroxicam]
